{"source": "patent US11510960B2", "about": "“Biofilm disrupting composition for use on chronic wounds” (Whiteley Corporation Pty Ltd, priority 2016, dated 2022)", "origin": "cited, not measured here", "system": "P. aeruginosa biofilm from venous leg ulcers", "data": [{"substance": "gentamicin", "values": [{"measurement": "reduction in concentration in relation to the control biofilm", "setting": "biofilm 24 hours post-debridement, antibiotic treatment", "result": "nine-fold"}, {"measurement": "average log reduction in bacteria after antibiotic treatment", "setting": "mature (pre-study) biofilm, three patients with non-healing venous leg ulcers", "result": 4, "unit": "log"}]}]}
